Measured values reported in the supplement of paper PMC5908809.

Experiments:
[1] = system: normal NK cells expanded with K562-aAPC; test: percent inhibition of viability; higher = more inhibition; details: 72 h, IL-2 2.5 ng/mL
Method: (§1)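 Drug sensitivity and resistance testing on K562-aAPC-expanded normal NK cells: 5 concentrations (10-fold steps over a 10,000-fold range), 72 h at 37 °C, viability by CellTiter-Glo normalised to DMSO and benzethonium chloride controls; DSS from the fitted curve.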

[2] = system: normal NK cells expanded with K562-aAPC; test: drug sensitivity score (DSS) (DSS units); higher = more sensitive; extreme values may be limits of the assay; details: 72 h; IL-2 2.5 ng/mL
Method: as §1

NK-92 (IL-2 2.5 ng/mL) [3] = test: percent inhibition of viability; higher = more inhibition; details: 72 h
KAI3 (IL-2 2.5 ng/mL) [4] = test: as above; details: 72 h
NKL (IL-2 2.5 ng/mL) [5] = test: as above; details: 72 h
NK-YS (IL-2 2.5 ng/mL) [6] = test: as above; details: 72 h
SNK-6 (IL-2 2.5 ng/mL) [7] = test: as above; details: 72 h
YT (IL-2 2.5 ng/mL) [8] = test: as above; details: 72 h
[9] = system: normal primary NK cells, pool 1 (3 donors), resting (IL-2 0 ng/mL); test: as above; details: 72 h
IMC-1 (IL-2 20 ng/mL) [10] = test: as above; details: 72 h
DERL-7 (IL-2 2.5 ng/mL) [11] = test: as above; details: 72 h
[12] = system: normal primary NK cells, pool 1 (3 donors) (IL-2 2.5 ng/mL); test: as above; details: 72 h
[13] = system: normal primary NK cells, pool 3 (3 donors) (IL-2 2.5 ng/mL); test: as above; details: 72 h
KHYG-1 (IL-2 2.5 ng/mL) [14] = test: as above; details: 72 h
[15] = system: normal primary NK cells, pool 2 (3 donors) (IL-2 2.5 ng/mL); test: as above; details: 72 h
NK-92 (IL-2 2.5 ng/mL) [16] = test: drug sensitivity score (DSS) (DSS units); higher = more sensitive; extreme values may be limits of the assay; details: 72 h
KAI3 (IL-2 2.5 ng/mL) [17] = test: as above; details: 72 h
NKL (IL-2 2.5 ng/mL) [18] = test: as above; details: 72 h
NK-YS (IL-2 2.5 ng/mL) [19] = test: as above; details: 72 h
SNK-6 (IL-2 2.5 ng/mL) [20] = test: as above; details: 72 h
YT (IL-2 2.5 ng/mL) [21] = test: as above; details: 72 h
[22] = system: normal primary NK cells, pool 1 (3 donors), resting (IL-2 0 ng/mL); test: as above; details: 72 h
IMC-1 (IL-2 20 ng/mL) [23] = test: as above; details: 72 h
DERL-7 (IL-2 2.5 ng/mL) [24] = test: as above; details: 72 h
[25] = system: normal primary NK cells, pool 1 (3 donors) (IL-2 2.5 ng/mL); test: as above; details: 72 h
[26] = system: normal primary NK cells, pool 3 (3 donors) (IL-2 2.5 ng/mL); test: as above; details: 72 h
KHYG-1 (IL-2 2.5 ng/mL) [27] = test: as above; details: 72 h
[28] = system: normal primary NK cells, pool 2 (3 donors) (IL-2 2.5 ng/mL); test: as above; details: 72 h

Clc1ccccc1C(c1ccccc1)(c1ccccc1)n1cccn1 [TRAM-34] (max concentration tested 1000 nM)
percent inhibition of viability [%]
Details	0.1 nM	1 nM	10 nM	100 nM	1000 nM
DERL-7 (IL-2 2.5 ng/mL) [11]	2.4	-1.24	1.99	-0.74	3.63
IMC-1 (IL-2 20 ng/mL) [10]	-7.73	1.38	0.84	6.67	8.82
KAI3 (IL-2 2.5 ng/mL) [4]	-2.69	4.59	-1.47	2.61	4.51
KHYG-1 (IL-2 2.5 ng/mL) [14]	-1.11	0.96	-3.26	0.95	-0.5
NK-92 (IL-2 2.5 ng/mL) [3]	-8.56	-5.28	-2.17	-14.1	11.6
NK-YS (IL-2 2.5 ng/mL) [6]	1.9	0.93	2.82	2.55	8.67
NKL (IL-2 2.5 ng/mL) [5]	-1.68	-6.27	6.64	4.13	5.01
SNK-6 (IL-2 2.5 ng/mL) [7]	5.28	12.6	2.07	24	3.1
YT (IL-2 2.5 ng/mL) [8]	-3.41	-5.82	-7.53	-11.9	12.2
[1]	-6.55	1.68	-0.18	9.02	12.7
[9]	-5.83	-36.5	-10.7	-18.8	-3.17
[12]	3.23	-13.1	1.01	-11	-5.83
[13]	-3.16	-4.73	5.06	-3.53	6.24
[15]	-11.6	-1.76	12.1	-4.19	0.97

Details	drug sensitivity score
DERL-7 (IL-2 2.5 ng/mL) [24]	0
IMC-1 (IL-2 20 ng/mL) [23]	0
KAI3 (IL-2 2.5 ng/mL) [17]	0
KHYG-1 (IL-2 2.5 ng/mL) [27]	0
NK-92 (IL-2 2.5 ng/mL) [16]	0
NK-YS (IL-2 2.5 ng/mL) [19]	0
NKL (IL-2 2.5 ng/mL) [18]	0
SNK-6 (IL-2 2.5 ng/mL) [20]	0
YT (IL-2 2.5 ng/mL) [21]	0
[2]	0.49
[22]	0
[25]	0
[26]	0
[28]	0

CC[C@@H]1C(=O)N(C)c2cnc(Nc3ccc(C(=O)N[C@H]4CC[C@H](N5CCN(CC6CC6)CC5)CC4)cc3OC)nc2N1C(C)C [Volasertib] (max concentration tested 1000 nM)
percent inhibition of viability [%]
Details	0.1 nM	1 nM	10 nM	100 nM	1000 nM
DERL-7 (IL-2 2.5 ng/mL) [11]	6.13	1.89	15.1	98.3	95
IMC-1 (IL-2 20 ng/mL) [10]	-3.21	-4.2	2.24	94	93.2
KAI3 (IL-2 2.5 ng/mL) [4]	2.62	2.62	15	38.7	51.1
KHYG-1 (IL-2 2.5 ng/mL) [14]	-0.67	-1.62	4.85	98.4	99.2
NK-92 (IL-2 2.5 ng/mL) [3]	-14.8	-9.97	33.1	92	82.6
NK-YS (IL-2 2.5 ng/mL) [6]	-1.3	1.64	5.27	59	51
NKL (IL-2 2.5 ng/mL) [5]	-8.73	-9.25	-5.94	65.4	40.5
SNK-6 (IL-2 2.5 ng/mL) [7]	8.84	8.4	39	65.5	42.1
YT (IL-2 2.5 ng/mL) [8]	-2.13	1.45	2.63	73.9	70.2
[1]	0.48	-0.94	-1.6	54.3	54.2
[9]	8.74	-8.57	-4.01	0.78	16
[12]	-2.22	-7	-3.63	-0.83	28.3
[13]	-12.7	-9.54	-12.6	-7.36	8.33
[15]	-9.16	-9.48	-8.67	-4.83	38.6

Details	drug sensitivity score
DERL-7 (IL-2 2.5 ng/mL) [24]	20.2
IMC-1 (IL-2 20 ng/mL) [23]	17.2
KAI3 (IL-2 2.5 ng/mL) [17]	8.7
KHYG-1 (IL-2 2.5 ng/mL) [27]	18.4
NK-92 (IL-2 2.5 ng/mL) [16]	21.2
NK-YS (IL-2 2.5 ng/mL) [19]	11.7
NKL (IL-2 2.5 ng/mL) [18]	11.5
SNK-6 (IL-2 2.5 ng/mL) [20]	16.3
YT (IL-2 2.5 ng/mL) [21]	13.8
[2]	9.75
[22]	0.37
[25]	1.12
[26]	0
[28]	1.57
